Paper PMC7041945, “Misfolded proteins bind and activate death receptor 5 to trigger apoptosis during unresolved endoplasmic reticulum stress” (eLife, 2020)

Test system: PARP / caspase 8 / caspase 3 in HCT116 cells
Assay: Western blot of HCT116 lysates (PARP, caspase 8 and caspase 3 cleavage, DR5 level)
Assay type: cell-based, Homo sapiens
Details: HCT116, 24 hr, titration of construct
Experimental: Media and cells for each sample were collected by cell scraping into cold PBS followed by a subsequent wash with 1 ml of cold PBS. The cell pellet was then resuspended in cold lysis buffer (30 mM HEPES pH 7.2, 150 mM NaCl, 1% Triton X100, 1x Roche protease inhibitor) and lysed via needle shearing on ice. Samples were centrifuged at 1000xg for 5 min, and the supernatants were mixed with sample buffer to a final concentration of 1% SDS, 62.5 mM Tris-HCl pH 6.8, 10% glycerol, 0.1% bromophenol blue, 50 mM DTT. Samples were boiled at 95°C and loaded on SDS-PAGE gels (GenScript). Samples were subsequently transferred onto nitrocellulose membranes, blocked with Odyssey buffer (Licor) for 1 hr at RT, and probed with primary antibodies diluted 1:1000 (unless otherwise specified) in Licor Odyssey buffer supplemented with 0.1% Tween 20% at 4°C overnight.
Bound primary antibodies were probed by HRP-conjugated secondary antibodies (Amersham, Piscataway, NJ, 1:10000) using enhanced chemiluminescence (SuperSignal; Thermo Scientific, Waltham, MA) detected by standard film or through the ChemiDoc XRS+ Imaging System (Bio-Rad).

FTWRYQPEGGRDAISIFHYA [MPZ-ecto peptide-eGFP, expressed construct: MPZ ectodomain replaced by the MPZ-ecto peptide, GFP-tagged]
PARP cleavage and caspase activity: induced more PARP cleavage and caspase activity than similar or higher levels of the peptides containing Glu substitutions
PARP cleavage and caspase activity (listed as WT MPZ-ecto): PARP cleavage and caspase activity measured in cell lysates were increased
